Assay results published in patent EP0108147B1, “Use of a protoberberine alkaloid and composition containing same” (MAROKO, Peter R., priority 1982, dated 1983).
Read-outs that look alike come from different tables or passages of the source.

Assays:
[1] = system: anesthetized closed chest dogs; experiment: Association of ouabain and berberine on contractility (LV dP/dt), constant systolic pressure; format: in vivo; details: for increase of LV dP/dt, of the initial LV dP/dt: berberine 0.7 mg/Kg/min after ouabain; for increases in dP/dt: only berberine 0.7 mg/Kg/min without digitalis
Protocol: In anesthetized closed chest dogs the systolic arterial pressure was maintained constant with a reservoir full of heparinized blood (as in protocol "M" and "Z" described above) and a "pigtail" and Millar catheter were introduced into the left ventricular cavity (as in protocol "Z" and "HV", described above). All data was recorded on 8 channel polygraph (Gould Instruments) with a paper speed of 200 mm/s when necessary and at 2 mm/s constantly.

[2] = system: closed-chest anesthetized dogs; details: for change of diastolic pressure: berberine in addition to digitalis; for antiarrhythmic and antiarrhythmogenic result in the ouabain experiment: dog, in vivo
Protocol: A study was carried out to examine the effects of the simultaneous administration of berberine on digitalis (i.e. ouabain) produced arrhythmias.
The experiments were conducted in closed-chest anesthetized dogs which were randomized to three groups. All received ouabain 0.03 mg/Kg as a bolus intravenously and thereafter a continuous infusion with a constant rate of 0.0006 mg/Kg/min until death. […] The second group received simultaneously berberine 1 mg/Kg intravenously as a bolus and then 0.2 mg/Kg/min as a continous infusion. The third group received berberine only after the appearance of VEA in a frequency of 50% of more of all systoles.
Moreover, the effects of intravenous bolus injection of berberine (0.4 to 1 mg/Kg) was studied (in comparison to dextrose 5% injection).

Sprague-Daley rats = experiment: Rat model of acute coronary artery occlusion, mortality; format: in vivo; details: for antiarrhythmic control after coronary artery occlusion: rat, in vivo
Text: Another series of experiments were done using the rat model of acute coronary artery occlusion. In these experiments the effect of berberine was examined on mortality. Thus, Sprague-Daley rats (Charles River) weighing over 300 grams were anesthetized with ether, their chest opened in the 5th left intercostal space their heart everted and the left main coronary occluded with a surgical stitch. Thereafter the heart was repositioned and the thorax closed with a purse string suture, as described in more detail by us previously (Maclean, Fishbein, M. C. Braunwald, E. and Maroco, P. R., Long Term Presentation of Ischemic Myocardium After Experimental Coronary Artery Occlusion. J. Clin. Inv. 61, pages 541-551, 1978 and also in Maclean, D., Fishbein, M. D., Maroko, P. R. and Braunwald, Hyaluronidase-Induced Reductions In Myocardial Infarct Size. Science, 194, pages 199-200 (1976)). The mortality in rats weighing over […] was greater than in smaller rats.
After finishing the surgical procedure, the rats were randomized into controls (injection of 5% dextrose in water) and berberine treated (1 mg/Kg intravenously as a bolus).

[3] = system: closed-chest barbiturate anesthetized dogs; experiment: Endotoxic (LPS) shock in dogs; format: in vivo
Protocol: Nineteen closed-chest barbiturate anesthetized with artificial respiration dogs were studied. All measurements were done by the technique described before LPS.
At this time, i.e., two hours and fifteen minutes after administration of LPS, 1000 ml of 5% of dextrose in water was administered to all dogs during the next forty-five minutes.
Urinary output during the second hour of shock (before berberine or placebo treatments) and the third hour of shock (when the dogs were treated with either berberine of placebo) were compared in each dog. This analysis is of crucial importance since it would indicate the restoration of effective organ perfusion which in the case of the kidneys results in urinary output.

Mongrel dogs = experiment: Protocol Z: continuous 35 minute infusion in anesthetized open-chest dogs, constant left ventricular pressure; format: in vivo; details: for reduction of calculated peripheral resistance: 0.2 mg/Kg/min
Protocol: Mongrel dogs weighing between 15 and 25 kg were anesthetized with intravenous sodium thiamylal (20 mg/kg initially with additional doses given as needed). The dogs were intubated endotracheally, and respiration was maintained by a Harvard respirator. The chest was then opened in the fourth left intercostal space and the heart suspended temporarily in a pericardial cradle.
Aortic pressures were recorded through a polyethylene cannula introduced through the carotid artery (Statham P23 Db pressure transducer) and electrocardiogram (lead aVF) were recorded throughout the experiment on a polygraph (Gould Instruments). Another polyethylene cannula was placed in the left atrium for measurement of atrial pressure (Statham P23 Db pressure transducer). An electromagnetic flowmeter (Biotonix Laboratories) was placed around the ascending aorta and the aortic flow was recorded on a polygraph. Two catheters were inserted into the left ventricle through a femoral artery.
The first ("pigtail") served as a reference, while the second (Millar microtip transducer catheter) was connected through a Millar transducer (Millar Instruments, Houston, Texas) to the polygraph, where both left ventricular pressure curves were recorded simultaneously. The left ventricular end diastolic pressure was recorded separately through a Millar catheter. The first derivative of the left ventricular pressure (dP/dt) was obtained by electronic differentiation of the left ventricular pulse recorded through the Millar catheter.
A reservoir of blood was connected with the femoral artery in order to maintain constant left ventricular pressure during the experiment. In this protocol, similarly to protocol M, systemic arterial pressure was maintained constant in order to have accurate measurements of dP/dt which represent well left ventricular contractility when the systolic pressure is maintained constant. However, calculated total peripheral resistance will be higher (an underestimation of the fall). After stabilization of hemodynamics as reflected by continuously monitored parameters for 15 minutes, the substances to be studied were infused intravenously using a Harvard infusion pump. Registrations were made every 5 minutes at a paper speed of 200 mm/second, while all the parameters were recorded constantly at a speed of 2 mm/second. The dogs were randomly assigned to several groups: • Group a) Control - in these dogs a solution of 5% dextrose in water was infused in the same quantity as in the berberine treated animals (n = 7).
In all berberine, berberrubine coreximine and tetrahydropalmatine groiups the compounds were infused at constant rate for 35 minutes and the data analyzed at 5 minute intervals. • Group b) Berberine 0.7 mg/Kg/min (n = 10). • Group c) Berberine 0.2 mg/Kg/min (n = 7). • Group d) Berberine 0.02 mg/Kg/min (n = 7). • Group e) Berberrubine 0.2 mg/Kg/min (n = 7). • Group f) Tetrahydropalmatine 0.2 mg/Kg/min (n = 4). • Group g) Coreximine 0.2 mg/Kg/min (n = 8).
Therefore, group b, c and d were used to analyze the various effects of continuous infusion of berberine and its dose response and groups e and f and g used to examine the effects of these three other proberberines. Moreover, their effects were compared to the berberine treated dogs with the same dose (i.e. Group c).

[4] = berberine started after the appearance of 50% of VEA
[5] = 0.7 mg/Kg/min, after 35 minutes
[6] = 0.7 mg/Kg/min, over the control

COc1ccc2cc3[n+](cc2c1OC)CCc1cc2c(cc1-3)OCO2 [berberine]
increase of LV dP/dt, of the initial LV dP/dt ([1]; 5 minutes): 87±10%
increase of LV dP/dt, of the initial LV dP/dt ([1]; 10 minutes): 82±13%
increase of LV dP/dt, of the initial LV dP/dt ([1]; 15 minutes): 87±13%
increase of LV dP/dt, of the initial LV dP/dt ([1]; 20 minutes): 95±16%
increase of LV dP/dt, of the initial LV dP/dt ([1]; 25 minutes): 96±16%
increase of LV dP/dt, of the initial LV dP/dt ([1]; 30 minutes): 94±14%
combined effect with ouabain on contractility ([1]; dog, in vivo): more than additive but synergistic
increases in dP/dt ([1]; 5 minutes): 30±4%
increases in dP/dt ([1]; 10 minutes): 36±3%
increases in dP/dt ([1]; 15 minutes): 39±3%
increases in dP/dt ([1]; 20 minutes): 42±5%
increases in dP/dt ([1]; 25 minutes): 39±5%
increases in dP/dt ([1]; 30 minutes): 40±7%
occurrence of any arrhythmias (VEA more than 25%, VT or death) ([2]; after 60 minutes, all sixteen controls had): three had arrhythmias and six did not
occurrence of any arrhythmias (VEA more than 25%, VT or death) ([2]; after 90 minutes, all controls had): four had arrhythmias and five did not
occurrence of any arrhythmias (VEA more than 25%, VT or death) ([2]; at 30 minutes, control twelve had, four did not): one had arrhythmia and eight did not
occurrence of any arrhythmias (VEA more than 25%, VT or death) ([2]; at 45 minutes, control fourteen had, two did not): three had arrhythmias and six had not
change of diastolic pressure ([2]; 10 minutes): -9±5%
change of diastolic pressure ([2]; 20 minutes): -13±9%
change of diastolic pressure ([2]; 30 minutes): -13±10%
change of diastolic pressure ([2]; 60 minutes): -20±11%
amount of ouabain that provoked VT [2, 4]: 0.080 mg/kg
delay of the appearance of sustained VT [2, 4]: more than 250%
time of appearance of sustained VT ([2]; berberine started after the appearance of 50% of VEA, control 30.1±6.5): 84.5 ± 13.8 min
dose of ouabain to provoke VT ([2]; berberine treated dogs (simultaneous)): 0.088 mg/kg
injections effective in reverting VT into sinus rhythm within five minutes ([2]; intravenous bolus 0.4 to 1 mg/Kg, placebo none of twelve): 30 out of 41
time of appearance of 25% of VEA ([2]; ouabain infusion + simultaneous berberine 1 mg/Kg bolus then 0.2 mg/Kg/min, controls 22±4.7): 66.5 ± 14.6 min
prolongation of the time of appearance of VEA and VT ([2]; simultaneous berberine): around 300%
time of appearance of 50% of VEA ([2]; simultaneous berberine, controls 23.9±4.7): 66.7 ± 15.3 min
time of appearance of VT ([2]; simultaneous berberine, controls 30.1±6.5): 96.1 ± 15.1 min
ventricular fibrillation ([2]; two berberine dogs): ventricular fibrillation reverted without any other therapy
rats that died within the first fifteen minutes (Sprague-Daley rats; 1 mg/Kg intravenously as a bolus, controls seventeen out of twenty-four): six out of twenty- two
systemic systolic arterial pressure ([3]; after 1000 ml of 5% dextrose in water, controls 107±5, before shock 136±10): 127±6 mmHg
dP/dt higher than before shock ([3]; after dextrose): approximately 50%
peak left ventricular dP/dt ([3]; after dextrose, before shock 2565±166): 3740 ± 305 mmHg/s
cardiac arrhythmias or conduction defect ([3]; dog, in vivo): No cardiac arrhythmias or conduction defect was observed
increase of urinary output from the second (pre-treatment) to the third (treatment) hour ([3]; first statement, control -51.7±32.9): 30.5 ± 32.9 mL/h
increase of urinary output from the second (pre-treatment) to the third (treatment) hour ([3]; second statement): 30.5±14.3 mi
minimal dose that results in an elevation of systemic systolic arterial pressure by at least 5 mmHg ([3]; two hours after LPS 5 mg): 0.053 ± 0.008 mg/kg/min
peak left ventricular dP/dt ([3]; within fifteen minutes of treatment, control 1050±145): 2062±204 mmHg/s
pulse pressure (systolic minus diastolic pressures) ([3]; within fifteen minutes of treatment, from 24±2): 32±2 mmHg
systolic pressure ([3]; within fifteen minutes of treatment, placebo 50±6): 66±4 mmHg
increase in dP/dt (Mongrel dogs; 0.002 mg/Kg/min, one additional dog): 20%
increase of pulse pressure (Mongrel dogs; 0.02 mg/Kg/min (group d)): 18.5 ± 10%
increase in dP/dt (Mongrel dogs; 0.02 mg/Kg/min, after 35 minutes): 35.8 ± 8.2%
reduction of calculated peripheral resistance (Mongrel dogs): over 30%
Stroke volume (SV) (Mongrel dogs; 0.2 mg/Kg/min (Table XIII)): increased significantly
fall in diastolic arterial pressure (widening in the pulse-pressure, PP) relative to the other three drugs (Mongrel dogs; 0.2 mg/Kg/min (Table XIII)): more than twice as large
fall of heart rate (HR) (Mongrel dogs; 0.2 mg/Kg/min (Table XIII)): 16-17%
increase of aortic flow (stroke volume) (Mongrel dogs; 0.2 mg/Kg/min (group c)): 53.6 ± 17.7%
reduction of heart rate (Mongrel dogs; 0.7 mg/Kg/min): 32 ± 3%
increase in LV dP/dt (Mongrel dogs; 0.7 mg/Kg/min, after 5 minutes): 35%
decrease of calculated total peripheral resistance (Mongrel dogs; [5]): 46.8 ± 9.3%
increase of aortic pulse-pressure (Mongrel dogs; [5]): 125 ± 19%
increase of peak aortic blood flow (Mongrel dogs; 0.7 mg/Kg/min, after 35 minutes, ascending aorta): 73%
increase in LV dP/dt (Mongrel dogs; 0.7 mg/Kg/min, at 35 minutes): 43.2 ± 7.0%
increase in cardiac output (Mongrel dogs; [6]): 75 ± 29%
increase in stroke volume (calculated by planimetry) (Mongrel dogs; [6]): 169 ± 36%
fall in heart rate (Mongrel dogs; at the smaller doses): no significant fall in heart rate
QTc interval (Mongrel dogs; dog, in vivo): overall increase
P-R interval (Mongrel dogs; i.v. for 60' (0.7 mg/Kg/min), total 42 mg/Kg): does not increase the P-R interval
QRS complex or interval (Mongrel dogs; over the period of i.v. administration (Fig. XVII)): not increased
average increase of QTc (Mongrel dogs; when dP/dt is increased by 43%): 16%

COc1ccc2cc3[n+](cc2c1O)CCc1cc2c(cc1-3)OCO2 [berberrubine]
result in the association with ouabain ([1]; dog, in vivo): perform in the same manner
antiarrhythmic and antiarrhythmogenic result in the ouabain experiment [2]: satisfactory results
antiarrhythmic control after coronary artery occlusion (Sprague-Daley rats): like antiarrhythmic control is observable
control of endotoxic shock caused by LPS ([3]; dog, in vivo): comparable results
reduction of calculated peripheral resistance (Mongrel dogs): did not show that property to that pronounced degree
Stroke volume (SV) (Mongrel dogs; 0.2 mg/Kg/min (Table XIII)): just slightly (and not statistically significantly)
fall of heart rate (HR) (Mongrel dogs; 0.2 mg/Kg/min (Table XIII)): 16-17%

COc1cc2c(cc1O)C[C@H]1c3cc(O)c(OC)cc3CCN1C2 [coreximine]
result in the association with ouabain ([1]; dog, in vivo): perform in the same manner
antiarrhythmic and antiarrhythmogenic result in the ouabain experiment [2]: satisfactory results
antiarrhythmic control after coronary artery occlusion (Sprague-Daley rats): like antiarrhythmic control is observable
control of endotoxic shock caused by LPS ([3]; dog, in vivo): comparable results
reduction of calculated peripheral resistance (Mongrel dogs): did not show that property to that pronounced degree
Stroke volume (SV) (Mongrel dogs; 0.2 mg/Kg/min (Table XIII)): increased significantly
fall of heart rate (HR) (Mongrel dogs; 0.2 mg/Kg/min (Table XIII)): 16-17%
